# Assay results from US20150274719A1, “AMINO-SUBSTITUTED IMIDAZO[1,2-A]PYRIDINECARBOXAMIDES AND THEIR USE” (BAYER PHARMA AKTIENGESELLSCHAFT, priority 2012, published 2015).
# Structures can show the parent of a compound that is named as a salt.
# Biological target: T1, recombinant guanylate cyclase reporter cell line (Rattus norvegicus, UniProt P19686+P20595)
# T1 construct: expressed in transfected cells; host or cells: recombinant reporter cell line
# T1 sequence (P19686 1-690): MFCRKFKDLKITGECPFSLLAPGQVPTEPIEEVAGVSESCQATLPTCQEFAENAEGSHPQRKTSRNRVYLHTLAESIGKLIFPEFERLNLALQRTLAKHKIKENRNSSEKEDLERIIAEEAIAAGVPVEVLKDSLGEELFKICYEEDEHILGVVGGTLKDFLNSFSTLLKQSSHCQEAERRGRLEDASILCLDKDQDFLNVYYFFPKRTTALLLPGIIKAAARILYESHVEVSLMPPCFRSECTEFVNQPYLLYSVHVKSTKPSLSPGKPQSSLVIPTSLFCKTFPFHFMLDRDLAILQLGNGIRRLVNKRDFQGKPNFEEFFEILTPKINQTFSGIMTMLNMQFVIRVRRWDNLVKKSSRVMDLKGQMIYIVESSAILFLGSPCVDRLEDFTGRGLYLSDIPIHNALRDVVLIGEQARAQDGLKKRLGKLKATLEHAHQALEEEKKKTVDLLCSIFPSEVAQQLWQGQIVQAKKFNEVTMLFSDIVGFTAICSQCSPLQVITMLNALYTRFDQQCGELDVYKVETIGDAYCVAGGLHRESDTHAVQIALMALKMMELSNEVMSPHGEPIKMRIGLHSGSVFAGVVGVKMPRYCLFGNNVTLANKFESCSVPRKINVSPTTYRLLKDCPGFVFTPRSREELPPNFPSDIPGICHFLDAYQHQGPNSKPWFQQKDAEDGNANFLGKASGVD
# T1 sequence (P20595 1-619): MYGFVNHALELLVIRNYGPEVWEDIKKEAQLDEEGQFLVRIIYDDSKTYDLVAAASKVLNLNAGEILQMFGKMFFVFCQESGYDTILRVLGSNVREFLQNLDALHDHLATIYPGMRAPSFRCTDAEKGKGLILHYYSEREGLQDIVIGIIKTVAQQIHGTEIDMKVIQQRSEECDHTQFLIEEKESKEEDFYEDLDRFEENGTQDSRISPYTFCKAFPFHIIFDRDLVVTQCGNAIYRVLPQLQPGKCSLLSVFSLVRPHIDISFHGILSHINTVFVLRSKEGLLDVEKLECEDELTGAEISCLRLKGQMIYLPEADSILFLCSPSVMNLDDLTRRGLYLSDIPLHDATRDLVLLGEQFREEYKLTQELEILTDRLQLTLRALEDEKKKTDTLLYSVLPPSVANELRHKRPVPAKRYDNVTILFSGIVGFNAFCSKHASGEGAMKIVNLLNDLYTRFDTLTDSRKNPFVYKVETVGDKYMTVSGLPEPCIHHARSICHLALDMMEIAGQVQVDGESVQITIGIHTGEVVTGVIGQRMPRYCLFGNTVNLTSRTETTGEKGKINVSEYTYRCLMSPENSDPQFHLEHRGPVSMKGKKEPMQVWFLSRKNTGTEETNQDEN
# Test: Action on recombinant guanylate cyclase reporter cell line
# Type: cell-based
# Details: in some cases mean values from individual determinations
# Procedure: B-2. Action on Recombinant Guanylate Cyclase Reporter Cell Line
# The cellular action of the compounds according to the invention is determined on a recombinant guanylate cyclase reporter cell line, as described in F. Wunder et al., Anal. Biochem. 339, 104-112 (2005).
# Representative MEC values (MEC=minimal effective concentration) for the compounds according to the invention are shown in the following table (in some cases as mean values obtained from individual determinations): […]
row,MEC (minimal effective concentration) [µM],SMILES
1,0.30,"Cc1nc2c(OCC3CCCCC3)cccn2c1C(=O)NC(CN)c1ccc(F)c(F)c1 (single isomer, unassigned) [Example 178, ent-N-[2-Amino-1-(3,4-difluorophenyl)ethyl]-8-(cyclohexylmethoxy)-2-methylimidazo[1,2-a]-pyridine-3-carboxamide]"
2,0.30,"Cc1cc(OCc2c(F)cccc2F)c2nc(C)c(C(=O)NC(C)(C)CN)n2c1 [Example 26, N-(1-amino-2-methylpropan-2-yl)-8-[(2,6-difluorobenzyl)oxy]-2,6-dimethylimidazo[1,2-a]-pyridine-3-carboxamide]"
3,1.00,"Cc1nc2c(OCc3c(F)cccc3F)cccn2c1C(=O)NCC(C)N1CCOCC1 (racemic) [Example 132, rac-8-[(2,6-difluorobenzyl)oxy]-2-methyl-N-[2-(morpholin-4-yl)propyl]imidazo[1,2-a]pyridine-3-carboxamide]"
4,0.30,"Cc1nc2c(OCc3c(F)cccc3F)cc(Cl)cn2c1C(=O)NCC(C)N (racemic) [Example 23, rac-N-(2-aminopropyl)-6-chloro-8-[(2,6-difluorobenzyl)oxy]-2-methylimidazo[1,2-a]-pyridine-3-carboxamide]"
5,5.5,"Cc1cc(OCc2c(F)cccc2F)c2nc(C)c(C(=O)NCC(N)c3csc(C)n3)n2c1 (racemic) [Example 415, rac-N-[2-amino-2-(2-methyl-1,3-thiazol-4-yl)ethyl]-8-[(2,6-difluorobenzyl)oxy]-2,6-dimethylimidazo[1,2-a]pyridine-3-carboxamide triformate]"
6,3.00,"CC(=O)Nc1cccc(C(CN)NC(=O)c2c(C)nc3c(OCc4c(F)cccc4F)cc(C)cn23)c1 (racemic) [Example 396, rac-N-[1-(3-acetamidophenyl)-2-aminoethyl]-8-[(2,6-difluorobenzyl)oxy]-2,6-dimethylimidazo[1,2-a]pyridine-3-carboxamide]"
7,0.30,"Cc1cc(OCc2c(F)cccc2F)c2nc(C)c(C(=O)NCC(C)(N)C(F)(F)F)n2c1 (single isomer, unassigned) [Example 241, ent-N-(2-Amino-3,3,3-trifluoro-2-methylpropyl)-8-[(2,6-difluorobenzyl)oxy]-2,6-dimethylimidazo-[1,2-a]pyridine-3-carboxamide]"
8,0.30,"Cc1nc2c(OCc3c(F)cccc3F)cc(Cl)cn2c1C(=O)NCCC(C)(C)N [Example 104, N-(3-Amino-3-methylbutyl)-6-chloro-8-[(2,6-difluorobenzyl)oxy]-2-methylimidazo[1,2-a]-pyridine-3-carboxamide]"
9,0.30,CCC(C)(N)CNC(=O)c1c(C)nc2c(OCc3c(F)cccc3F)cc(CF)cn12 (stereo not drawn) [Example 404]
10,0.30,"Cc1nc2c(OCc3c(F)cccc3F)cccn2c1C(=O)NC(C)[C@H](C)N (stereo partly drawn) [Example 120, N-[(3S)-3-Aminobutan-2-yl]-8-[(2,6-difluorobenzyl)oxy]-2-methylimidazo[1,2-a]pyridine-3-carboxamide]"
11,0.30,"CCCC(C)(N)CNC(=O)c1c(C)nc2c(OCc3c(F)cccc3F)cc(Cl)cn12 (single isomer, unassigned; enantiomer b) [Example 246, ent-N-(2-Amino-2-methylpentyl)-6-chloro-8-[(2,6-difluorobenzyl)oxy]-2-methylimidazo[1,2-a]-pyridine-3-carboxamide (Enantiomer B)]"
12,0.30,"Cc1cc(OCc2c(F)cccc2F)c2nc(C)c(C(=O)NCC(C)(N)Cc3ncn(-c4cc(C)on4)n3)n2c1 (racemic) [Example 321, rac-N-{2-amino-2-methyl-3-[1-(5-methyl-1,2-oxazol-3-yl)-1H-1,2,4-triazol-3-yl]propyl}-8-[(2,6-difluorobenzyl)oxy]-2,6-dimethylimidazo[1,2-a]pyridine-3-carboxamide]"
13,0.10,"Cc1cc(OCc2c(F)cccc2F)c2nc(C)c(C(=O)NCC3(N)CC3)n2c1 [Example 40, N-[(1-aminocyclopropyl)methyl]-8-[(2,6-difluorobenzyl)oxy]-2,6-dimethylimidazo[1,2-a]-pyridine-3-carboxamide]"
14,1.00,"Cc1nc2c(OCc3c(F)cccc3F)cccn2c1C(=O)NCCNC(C)C [Example 130, 8-[(2,6-difluorobenzyl)oxy]-N-[2-(isopropylamino)ethyl]-2-methylimidazo[1,2-a]-pyridine-3-carboxamide]"
15,1.00,"CCC(C)(N)CNC(=O)c1c(C)nc2c(OCc3c(F)ccc(OC)c3F)cc(C)cn12 (stereo not drawn) [Example 360, ent-N-(2-amino-2-methylbutyl)-8-[(2,6-difluoro-3-methoxybenzyl)oxy]-2,6-dimethylimidazo[1,2-a]pyridine-3-carboxamide]"
16,3.00,"Cc1nc2c(OCc3c(F)cccc3F)cccn2c1C(=O)NC(CN)COc1ccccc1 (racemic) [Example 59, rac-N-(1-amino-3-phenoxypropan-2-yl)-8-[(2,6-difluorobenzyl)oxy]-2-methylimidazo[1,2-a]-pyridine-3-carboxamide dihydrochloride]"
17,1.00,"Cc1nc2c(OCc3c(F)cccc3F)cccn2c1C(=O)NCC(N)C(C)C (single isomer, unassigned) [Example 229, ent-N-(2-Amino-3-methylbutyl)-8-[(2,6-difluorobenzyl)oxy]-2-methylimidazo[1,2-a]pyridine-3-carboxamide]"
18,0.30,"Cc1nc2c(OCc3c(F)cccc3F)cccn2c1C(=O)NCCN1CCC(F)(F)C1 [Example 143, 8-[(2,6-difluorobenzyl)oxy]-N-[2-(3,3-difluoropyrrolidin-1-yl)ethyl]-2-methylimidazo[1,2-a]pyridine-3-carboxamide]"
19,0.30,"CCCC(C)(N)CNC(=O)c1c(C)nc2c(OCc3c(F)cccc3F)cc(Cl)cn12 (racemic) [Example 244, rac-N-(2-Amino-2-methylpentyl)-6-chloro-8-[(2,6-difluorobenzyl)oxy]-2-methylimidazo[1,2-a]-pyridine-3-carboxamide]"
20,1.00,"Cc1nc2c(OCc3c(F)cccc3F)cccn2c1C(=O)NC(C)[C@@H](C)N (single isomer, unassigned) [Example 176]"
21,0.30,"Cc1cc(OCc2c(F)cccc2F)c2nc(C)c(C(=O)NC(CN)c3cc(F)c(F)c(F)c3)n2c1 (racemic) [Example 390, rac-N-[2-amino-1-(3,4,5-trifluorophenyl)ethyl]-8-[(2,6-difluorobenzyl)oxy]-2,6-dimethylimidazo[1,2-a]pyridine-3-carboxamide]"
22,0.30,"Cc1nc2c(OCc3c(F)cccc3F)cccn2c1C(=O)NC(C)[C@@H](C)N (stereo partly drawn) [Example 121, N-[(3R)-3-Aminobutan-2-yl]-8-[(2,6-difluorobenzyl)oxy]-2-methylimidazo[1,2-a]pyridine-3-carboxamide]"
23,3.00,"CCCC(C)(N)CNC(=O)c1cnc2c(OCc3c(F)cccc3F)cccn12 (stereo not drawn) [Example 354, ent-N-(2-amino-2-methylpentyl)-8-[(2,6-difluorobenzyl)oxy]imidazo[1,2-a]pyridine-3-carboxamide]"
24,0.30,"CCCC[C@H](CN1CCOCC1)NC(=O)c1c(C)nc2c(OCc3c(F)cccc3F)cccn12 [Example 64, ent-8-[(2,6-Difluorobenzyl)oxy]-2-methyl-N-[(2R)-1-(morpholin-4-yl)hexan-2-yl]imidazo[1,2-a]-pyridine-3-carboxamide]"
